Measurements taken from patent US20130190324A1, “TOPICAL OCULAR DRUG DELIVERY” (The Regents of the University of Colorado, a body corporate, priority 2011, published 2013).
Converted amounts (≈) assume the structure as drawn. “Also recorded” adds a separate entry of the source. Where two headings read alike, the source gives them in different places. Where a SMILES comes first, the peptide text is derived from it. [ ]: non-standard residue; d: D form. Sar = CNCC(=O)O

Legend:
[1] = tested on: New Zealand white rabbit cornea; assay: In vitro transport across rabbit cornea (Ussing chamber); type: in vitro ADME
Description: (§1) In vitro transport of […], and GFX-LYS were carried out across the New Zealand white rabbit cornea and sclera-choroid-[…]). Rabbit eyes were obtained within 24 hr of harvesting from Pel-Freez Biologicals (Rogers, Ark.) and shipped overnight in Hank's balanced salt solution on wet ice. Eyes were used immediately upon arrival. Eyes were washed with assay buffer and cleaned from the muscle and unwanted tissues. […] The small part of the sclera left with cornea helps in mounting the cornea on Ussing chambers. For isolation of the SCRPE, anterior and posterior parts were separated by a circumferential cut at the limbus. […] After separation of the retina, the eye cup was flattened with small cuts around the globe. […] A circulating water bath was used to maintain the temperature at 37° C. during the transport study. The pH of the assay buffer was maintained at 7.4 using 95% air-5% CO2 aeration which also helps in stirring of bathing solutions. Samples were collected (200 μL) from the receiver side every 30 minute for 3 hr and the lost volume was replaced with fresh assay buffer pre-equilibrated at 37° C. GFX levels were analyzed using an LC-MS/MS assay. […] GFX concentrations in the transport study and ocular tissue samples were analyzed using a validated LC-MS/MS method. […] Chromatographic separation of GFX and the internal standard moxifloxacin was performed on Obelisc C18 column (2.1×10 mm, 3 μm). Elution of analytes was performed using linear gradient elution with mobile phase consisting of 5 mM ammonium formate (pH 3.5) and acetonitrile (pH 3.5) with a flow rate of 300 μl/min and total run time of 6 min.

[2] = tested on: New Zealand white rabbit sclera-choroid-RPE (SCRPE); assay: In vitro transport across rabbit sclera-choroid-RPE (Ussing chamber); type: in vitro ADME; conditions: for cumulative % transport / permeability compared with GFX (in words): rabbit SCRPE
Description: as §1

[3] = physchem
[4] = tested on: conjunctiva; assay: In vitro transport of GFX prodrugs across conjunctiva; type: in vitro ADME, Rabbit
[5] = tested on: human sclera-choroid-RPE (SCRPE); assay: In vitro transport of transporter substrate cassette across human sclera-choroid-RPE
Description: In vitro transport studies across human cornea and sclera-choroid-RPE (SCRPE) were carried out according to previously published method using the cassette dosing approach. Briefly, cassette of drug transporter substrate including Gly-Sar (PEPT), L-tryptophan (ATB^0+), MPP^+ (OCT), and phenyl acetic acid (MCT) at concentration of 100 μM in assay buffer was prepared. Briefly, the human eyes were washed with assay buffer and cleaned from muscle and conjunctiva tissues, and anterior and posterior parts were separated by giving circumferential cut behind the limbus. Small sclera part was left with cornea, which helps in mounting of cornea on Ussing chambers. Neural retina was separated from the choroid-RPE by filling the eye cup with assay buffer, and floating retina was collected. After separation of retina, eye cup was divided into two rectangular pieces (˜1.5×1.5 cm) of sclera-choroid-RPE. Isolated tissues were mounted on modified Ussing chambers (Navicyte, Sparks, Nev.) such that the episcleral side of SCRPE or epithelial side of cornea was facing the donor chamber and retinal side or endothelial side of cornea is facing the receiver chamber. To study the effect of directionality on transport, one set of Ussing chambers mounted so that sclera side facing the donor side and another set was mounted so that choroid-RPE facing the donor side. The effect of directionality of transport across cornea was not evaluated. The chambers were filled with 1.5 ml of assay buffer with (donor side) or without (receiver side) the cocktail of drug transporter substrates. For study of effect of transporter inhibitors, cocktail mixture (500 μM) of transporter inhibitor was added on both donor and acceptor side.
During the transport study, the bathing fluids were maintained at 37° C. using a circulating warm water and pH 7.4 using 95% air-5% CO2 aeration. Samples were collected (200 μL) form receiver side every hour for 6 hr and the lost volume was compensated with fresh assay buffer pre-equilibrated at 37° C. The drug levels were analyzed using a LC-MS/MS assay. Permeation data were corrected for dilution of the receiver solution with sample volume replenishment.
Analytes concentrations in transport study samples were analyzed using LC-MS/MS method after 5-fold dilution with acetonitrile to reduce the salt concentrations. Cassette analysis method was developed for simultaneous analysis of Gly-Sar, L-tryptophan and MPP^+. Phenyl acetic acid was analyzed separately in negative ionization method and normal phase separation method. An API-3000 triple quadrupole mass spectrometry (Applied Biosystems, Foster City, Calif., USA) coupled with a PerkinElmer series-200 liquid chromatography (Perkin Elmer, Walthm, Mass., USA) system was used for analysis. Gly-Sar, L-tryptophan and MPP^+ were separated on Supelco C-5 column (2.1×10 mm, 3 μm) using water containing 0.1% formic acid (A) and acetonitrile:methanol (50:50 v/v) containing 0.1% formic acid (B) as mobile phase and a linear gradient elution at a flow rate of 0.3 ml/min with total run time of 9 min. Phenyl acetic acid was separated in normal phase separation mode using Obelisc-N silica column (2.1×10 mm, 3 μM) using 5 mM ammonium formate, pH 3.5 (A) and acetonitrile (B) as mobile phase in linear gradient mode at flow rate of 0.3 ml with total run time of 6 min. Gly-Sar, L-tryptophan, and MPP^+ were analyzed in positive ionization mode with following multiple reaction monitoring (MRM) transitions: 147→90 (Gly-Sar); 205→188 (L-tryptophan); 170→128 (MPP^+). Phenyl acetic acid was analyzed in negative ionization mode with following multiple reaction monitoring (MRM) transitions: 135→91 (Phenyl acetic acid).

[6] = tested on: calf cornea; assay: In vitro transport of substrate cassette across normoxic and hypoxic calf cornea
Source text: (§2) Animals used in this study were those that were sacrificed as part of other experiments approved by the Institutional Animal Care Committee of the Colorado State University (Fort Collins) and University of Colorado Anschutz Medical campus. Hypoxic and normoxic calf eyes were obtained from the Department of Physiology, School of Veterinary Medicine, Colorado State University (Fort Collins, Colo.). Briefly, 1 day old male Holstein calves (n=4) were kept in hypobaric hypoxic chambers (PB=445 mm Hg) for 2 weeks. For control experiment, age matched calves (n=4) were kept at ambient altitude (PB=650 mm Hg) and normoxia for two weeks. Hypoxic and normoxic rat eyes were obtained from the Department of Medicine, University of Colorado Anschutz Medical campus (Aurora, Colo.). Sprague Dawley rats (n=4) were maintained in hypobaric hypoxic chambers (PB=380 mm Hg) for 6 weeks and age matched controls were kept at ambient pressure and normoxia.
(§3) In vitro transport studies across hypoxic and control calf cornea and sclera-choroid-RPE (SCRPE) were carried using cassette dosing approach. A cassette of drug transporter substrates, Gly-Sar (PEPT), valacylovir (ATB^0+), MPP^+ (OCT), and phenylacetic acid (MCT) at a concentration of 100 μM each in assay buffer was prepared. Briefly, the calf eyes were harvested immediately after euthanasia and transferred to the laboratory on ice. Upon arrival in the lab, the eyes were washed with assay buffer and cleaned from muscle and unwanted tissues. Anterior and posterior parts were separated by circumferential cut at the limbus. Vitreous was removed and the neural retina was separated from the choroid-RPE by filling the eye cup with assay buffer. The retina afloat in assay buffer was isolated and the eye cup was divided into two pieces (˜1.5×1.5 cm) of sclera-choroid-RPE. Isolated tissues were mounted on modified Ussing chambers (Navicyte, Sparks, Nev.) such that the episcleral side of SCRPE or epithelial side of cornea was facing the donor chamber and retinal side or endothelial side of the cornea was facing the receiver chamber. The chambers were filled with 1.5 ml of assay buffer at 37° C. with (donor side) or without (receiver side) the cocktail of drug transporter substrates. For the study of effect of transporter inhibitors, cocktail mixture (500 μM) of transporter inhibitors was added on both donor and acceptor sides.
(§4) During the transport study, the bathing fluids were maintained at 37° C. using circulating warm water. The pH of the fluids was maintained at pH 7.4 using 95% air-5% CO2 aeration. Samples were collected (200 μL) from receiver side every hour for 6 hours and the removed volume was replaced with fresh assay buffer pre-equilibrated to 37° C. Drug levels were analyzed using a LC-MS/MS assay. Permeation data were corrected for dilution of the receiver concentrations with sample volume replenishment.
(§5) Analyte concentrations in transport study samples were measured using LC-MS/MS method after 5-fold dilution with acetonitrile to reduce the salt concentrations. A cassette analysis method was developed for simultaneous analysis of Gly-Sar, valacylovir, and MPP Phenyl acetic acid was analyzed separately with a negative ionization method and a normal phase separation method. An API-3000 triple quadrupole mass spectrometry (Applied Biosystems, Foster City, Calif., USA) coupled with a PerkinElmer series-200 liquid chromatography (Perkin Elmer, Waltham, Mass., USA) system was used for analysis. Gly-Sar, valacylovir and MPP were separated on Supelco C-5 column (2.1×10 mm, 3 μm) using water containing 0.1% formic acid (A) and acetonitrile:methanol (50:50 v/v) containing 0.1% formic acid (B) as mobile phase. A linear gradient elution at a flow rate of 0.3 ml/min with a total run time of 9 min was employed. Phenyl acetic acid was separated in normal phase separation mode on Obelisc-N silica column (2.1×10 mm, 3 μM) using 5 mM ammonium formate at pH 3.5 (A) and acetonitrile (B) as mobile phase.

[7] = tested on: calf sclera-choroid-RPE (SCRPE); assay: In vitro transport of substrate cassette across normoxic and hypoxic calf SCRPE
Source text: as §2, §3, §4, §5

solubility ([3]; water for injection) [µg/mL] | solubility ([3]; water) [µg/mL] | Structure (SMILES) | also measured
3010 (≈ 6540 µM) |  | COc1c(N2CCNC(C)C2)c(F)cc2c(=O)c(C(=O)NCCCC(=O)O)cn(C3CC3)c12 (stereo not shown) [GFX-MCT, 4-(1-cyclopropyl-6-fluoro-8-methoxy-7-(3-methylpiperazin-1-yl)-4-oxo-1,4-dihydroquinoline-3-carboxamido)butanoic acid] | cumulative % transport / permeability compared with GFX (in words) [1]: significantly (p<0.01) higher than GFX; transport in presence of nicotinic acid (competitive inhibitor of MCT) ([2]; SCRPE): not across SCRPE; cumulative % transport / permeability compared with GFX (in words) [2]: significantly (p<0.01) higher than GFX; cumulative % transport compared with GFX (in words) [4]: significantly (p<0.01) higher than GFX; transport in presence of nicotinic acid (competitive inhibitor of MCT) [4]: significantly inhibited; also recorded: only inhibited by nicotinic acid across conjunctiva
3220 (≈ 6510 µM) |  | Cc1ccc(-c2cc(C(F)(F)F)nn2-c2ccc(S(=O)(=O)NC(=O)CCCN(C)C)cc2)cc1 [CXB-OCT, 4-(dimethylamino)-N-((4-(5-(p-tolyl)-3-(trifluoromethyl)-1H-pyrazol-1-yl)phenyl)sulfonyl)butanamide] | 
620 (≈ 1250 µM) |  | Cc1ccc(-c2cc(C(F)(F)F)nn2-c2ccc(S(=O)(=O)NC(=O)CCCC(=O)O)cc2)cc1 [CXB-MCT, 5-oxo-5-(4-(5-(p-tolyl)-3-(trifluoromethyl)-1H-pyrazol-1-yl)phenylsulfonamido)pentanoic acid] | 
 |  | N[C@@H](Cc1c[nH]c2ccccc12)C(=O)O [L-tryptophan] | sclera to retina transport higher than retina to sclera transport ([5]; human, 6 h, 100 μM, pH 7.4): 1.6-2.0 fold
50 (≈ 98.1 µM) | 50 (≈ 98.1 µM) | Cc1ccc(-c2cc(C(F)(F)F)nn2-c2ccc(S(=O)(=O)NC(=O)C(N)CCCCN)cc2)cc1 (stereo not shown) [CXB-LYS, 2,6-diamino-N-(4-(5-p-tolyl-3-(trifluoromethyl)-1H-pyrazol-1-yl)phenylsulfonyl)hexanamide] | 
16 (≈ 32.4 µM) |  | Cc1ccc(-c2cc(C(F)(F)F)nn2-c2ccc(S(=O)(=O)NC(=O)C(N)CC(C)C)cc2)cc1 (stereo not shown) [CXB-LEU] | 
 |  | CN(CC(=O)O)C(=O)CN [Gly-Sar] (H-Gly-[Sar]-OH) | apparent permeability (Papp) across hypoxic vs normoxic tissue (in words) [6]: significantly higher across normoxic cornea than hypoxic cornea; sclera to retina transport higher than retina to sclera transport [5]: 1.6-2.0 fold; apparent permeability (Papp) across hypoxic vs normoxic tissue (in words) [7]: significantly higher across normoxic SCRPE than hypoxic SCRPE
2160 (≈ 4420 µM) |  | COc1c(N2CCN(C(=O)C(N)CC(C)C)C(C)C2)c(F)cc2c(=O)c(C(=O)O)cn(C3CC3)c12 (stereo not shown) [GFX-LEU, 7-(4-(2-amino-4-methylpentanoyl)-3-methylpiperazin-1-yl)-1-cyclopropyl-6-fluoro-8-methoxy-4-oxo-1,4-dihydroquinoline-3-carboxylic acid] | 
35 (≈ 65.1 µM) | 35 (≈ 65.1 µM) | Cc1ccc(-c2cc(C(F)(F)F)nn2-c2ccc(S(=O)(=O)NC(=O)C(N)CCCNC(=N)N)cc2)cc1 (stereo not shown) [CXB-ARG] | 
48000 (≈ 95300 µM) | 48000 (≈ 95300 µM) | COc1c(N2CCN(C(=O)C(N)CCCCN)C(C)C2)c(F)cc2c(=O)c(C(=O)O)cn(C3CC3)c12 (stereo not shown) [GFX-LYS, 1-cyclopropyl-7-(4-(2,6-diaminohexanoyl)-3-methylpiperazin-1-yl)-6-fluoro-8-methoxy-4-oxo-1,4-dihydroquinoline-3-carboxylic acid] | cumulative % transport / permeability compared with GFX (in words) [1]: not significantly different from GFX; cumulative % transport / permeability compared with GFX (in words) [2]: not significantly different from GFX
